According to patent publication US20210179680A1, “POLYPEPTIDE, DERIVATIVES THEREOF, AND APPLICATION THEREOF IN PREPARATION OF DRUGS HAVING RESISTANCE TO PULMONARY FIBROSIS” (priority 2016, published 2021):
Bridge positions count the residues as written; N and C are the ends. Square brackets hold non-standard residues; d marks the D form. Peptide text beside a SMILES is read from it. S5 = C=CCCC[C@](C)(N)C(=O)O

What was measured:
[1] = system: mice with bleomycin-induced pulmonary fibrosis; assay: Hydroxyproline content in lung of mice with pulmonary fibrosis; format: in vivo, C57BL/6 mice; conditions: 2 mg/kg i.p.; for hydroxyproline content (μg/mg protein): left lung lobes, chloramine-T method; for content of hydroxyproline in the lungs (in words): versus bleomycin group
Protocol: Male C57BL/6 mice were fasted overnight, then anesthetized with 45 mg/kg sodium pentobarbital by injection intraperitoneally (i.p.), and intratracheally injected with bleomycin at a dose of 3 U/kg. The specific operation steps are as follows: cut the neck skin of the mouse with as little trauma as possible, expose the trachea with the assistance of elbow ophthalmic forceps, puncture the trachea and inject about 50 μL of bleomycin into the trachea with a microsyringe, rotate the mouse quickly and stand it upright for 5 minutes in order to make bleomycin evenly enter the left and right lobe, thereby constructing an animal model. The whole operation was performed at a surgical table at about […]. Mice in the sham operation group were intratracheally injected with an equal amount of physiological saline for injection.
Hydroxyproline accounts for 13.4% (w/w) of collagen, and extremely small amount of elastin, while it is absent in other proteins. […] Pulmonary fibrosis models were prepared according to the method described in Example 2 and administered in groups according to Table 3. The content of hydroxyproline in the lobes of left lung of the animals was measured 28 days later, and the condition of pulmonary fibrosis was evaluated.
The specific method is as follows: the mice in the animal model prepared in Example 2 was feed in a SPF animal room and treated with polypeptide according to the dosing schedule of Table 3, and all left lobes of lung of the experimental animal was taken on the 21st day after the animal model was constructed and the wet weight was recorded. Then 10% (w/w) tissue homogenate was prepared by ultrasonic homogenization using physiological saline. About 150 μL of homogenate supernatant was taken, and 500 μL of alkali hydrolysate was added (provided by Hydroxyproline alkaline hydrolysis kit of Nanjing Jiancheng Bioengineering Technology Co., Ltd.). After vortex mixing, the mixture was treated with alkaline hydrolysis for 40 min under conditions of 120° C., 0.1 Kpa. After adjusting the pH value, the volume was held constant, and the supernatant was taken after performing activated carbon treatment. The hydroxyproline was determined according to the chloramine-T method (the method of the present example refers to the instruction provided with kit, which was purchased from Nanjing Jiancheng Bioengineering Technology Co., Ltd.). […] In FIG. 10, “##” represents that P value is less than 0.01 when comparing the content of hydroxyproline in the administration group with that in the sham operation group; and “*” represents that P value is less than 0.05 and“**” represents that P value is less than 0.01 when comparing the content of hydroxyproline in the administration group with that in bleomycin group.
Hydroxyproline accounts for 13.4% (w/w) of collagen, and accounts for extremely small amount of elastin, while it is absent in other proteins. […] Pulmonary fibrosis models were prepared according to the method described in Example 2 and administered in groups according to Table 3. The content of hydroxyproline in the all lobes of left lung of the animals was measured 28 days later, and the condition of pulmonary fibrosis was evaluated.
The specific method is as follows: the mice in the animal model prepared in Example 2 was feed in an SPF animal room and treated with polypeptide according to the dosing schedule of Table 3, and all the left lobes of lung of the experimental animal was taken on the 21st day after the animal model was constructed and the wet weight was recorded. Then 10% (w/w) tissue homogenate was prepared by ultrasonic homogenization using physiological saline. About 150 μL of homogenate supernatant was taken, and 500 μL of alkali hydrolysate was added (provided by Hydroxyproline alkaline hydrolysis kit of Nanjing Jiancheng Bioengineering Technology Co., Ltd.). After vortex mixing, the mixture was treated with alkaline hydrolysis for 40 min under conditions of 120° C., 0.1 Kpa. […]

[2] = target: T1, TRB3/MDM2 protein interaction (Homo sapiens, UniProt Q96RU7); assay: Co-immunoprecipitation: inhibition of binding of MDM2 to TRB3 in BEAS-2B cells; format: cell-based; conditions: BEAS-2B cells with TRB3 expression plasmid, 1 mg/mL polypeptide, 12 hours, co-IP with MDM2 antibody
T1 construct: host or cells: BEAS-2B
T1 sequence (Q96RU7 1-358): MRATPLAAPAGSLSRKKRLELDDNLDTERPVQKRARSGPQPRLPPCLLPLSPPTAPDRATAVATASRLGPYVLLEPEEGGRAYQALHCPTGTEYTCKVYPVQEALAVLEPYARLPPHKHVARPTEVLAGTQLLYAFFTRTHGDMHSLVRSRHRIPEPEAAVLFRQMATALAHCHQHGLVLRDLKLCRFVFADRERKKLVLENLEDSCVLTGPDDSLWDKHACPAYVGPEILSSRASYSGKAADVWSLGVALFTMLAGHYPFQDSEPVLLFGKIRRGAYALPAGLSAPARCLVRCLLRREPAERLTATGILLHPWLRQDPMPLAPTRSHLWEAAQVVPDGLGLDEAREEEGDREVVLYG
Protocol: 1. Human lung epithelial BEAS-2B cells (purchased from Institute of Basic Medical Sciences, Chinese Academy of Medical Sciences) were seeded in a 90 mm^2 culture dish. After the cells were adhered to the wall of culture dish, the TRB3 expression plasmid were transferred to the cells according to the method described in Example 5. After 24 hours, 1 mg/mL of the polypeptides MR2, S1, S2, S3, S4, S5, S6, S7, S8, S9, S10 or S11 prepared in Example 1 were added respectively, and the cells were incubated for 12 hours in a 37° C. incubator and then harvested.
2. Co-immunoprecipitation with MDM2 antibody was performed according to the method described in Example 3, followed by detection using TRB3 antibody.

[3] = α-helix ratio of polypeptides by circular dichroism; format: physicochemical; conditions: PBS solution, 1 mg/mL
Protocol: The α-helix ratio of the polypeptide was measured by a circular dichromatograph (purchased from Jasco, Japan). The polypeptides MR2, S1, S2, S3, S4, S5, S6, S7, S8, S9, S10 and S11 prepared in Example 1 were dissolved in PBS solution, and the working concentration of the circular dichromatograph was adjusted to 1 mg/mL. […] Among them, the α-helix ratio refers to the percentage of the number of peptide segments of the polypeptide that maintains the alpha helix of the secondary structure in the peptide segments of the total polypeptide.

Compound | hydroxyproline content (μg/mg protein) ([1]; Table 3 groups) | interaction of TRB3 and MDM2 protein (FIG. 5, in words) [2] | α-helicity (%) [3] [%] | α-helix ratio compared with polypeptide MR2 (in words) [3] | hydroxyproline content (μg/mg protein) ([1]; S19-S21 groups) | content of hydroxyproline in the lungs (in words) ([1]; S19-S21 groups)
CSCC[C@H](NC(=O)[C@H](CC(C)C)NC(=O)[C@@H](N)Cc1c[nH]cn1)C(=O)N[C@@H](C)C(=O)N[C@@H](CS)C(=O)N[C@@H](Cc1ccccc1)C(=O)N[C@H](C(=O)N[C@@H](CS)C(=O)N[C@@H](C)C(=O)N[C@@H](CCCCN)C(=O)N[C@@H](CCCCN)C(=O)N[C@@H](CC(C)C)C(=O)N[C@@H](CCCCN)C(=O)N[C@@H](CCCCN)C(=O)N[C@@H](CCCNC(=N)N)C(=O)O)[C@@H](C)O [MR2] (H-HLMACFTCAKKLKKR-OH; N-terminus and C-terminus assumed) | 0.9087 | interrupted | 0.0 | – | – | –
CSCC[C@@H]1NC(=O)[C@H](CC(C)C)NC(=O)[C@@](C)(N)CCCC=CCCC[C@@](C)(C(=O)N[C@@H](Cc2ccccc2)C(=O)N[C@H](C(=O)N[C@@H](CS)C(=O)N[C@@H](C)C(=O)N[C@@H](CCCCN)C(=O)N[C@@H](CCCCN)C(=O)N[C@@H](CC(C)C)C(=O)N[C@@H](CCCCN)C(=O)N[C@@H](CCCCN)C(=O)N[C@@H](CCCNC(=N)N)C(=O)O)[C@@H](C)O)NC(=O)[C@H](C)NC1=O [S1, S5-Leu-Met-Ala-S5-Phe-Thr-Cys-Ala-Lys-Lys-Leu-Lys-Lys-Arg] (H-[S5]LMA[S5]FTCAKKLKKR-OH; staple 1-5; N-terminus and C-terminus assumed) | 0.7087 | interrupted | 39.5 | significantly higher than that of polypeptide MR2 | – | –
CSCC[C@@H]1NC(=O)[C@@](C)(NC(=O)[C@@H](N)Cc2c[nH]cn2)CCCC=CCCC[C@@](C)(C(=O)N[C@H](C(=O)N[C@@H](CS)C(=O)N[C@@H](C)C(=O)N[C@@H](CCCCN)C(=O)N[C@@H](CCCCN)C(=O)N[C@@H](CC(C)C)C(=O)N[C@@H](CCCCN)C(=O)N[C@@H](CCCCN)C(=O)N[C@@H](CCCNC(=N)N)C(=O)O)[C@@H](C)O)NC(=O)[C@H](CS)NC(=O)[C@H](C)NC1=O [S2, His-S5-Met-Ala-Cys-S5-Thr-Cys-Ala-Lys-Lys-Leu-Lys-Lys-Arg] (H-H[S5]MAC[S5]TCAKKLKKR-OH; staple 2-6; N-terminus and C-terminus assumed) | 0.7063 | interrupted | 25.7 | significantly higher than that of polypeptide MR2 | – | –
CC(C)C[C@H](NC(=O)[C@H](CCCCN)NC(=O)[C@H](CCCCN)NC(=O)[C@H](C)NC(=O)[C@H](CS)NC(=O)[C@]1(C)CCCC=CCCC[C@](C)(NC(=O)[C@H](CC(C)C)NC(=O)[C@@H](N)Cc2c[nH]cn2)C(=O)N[C@@H](C)C(=O)N[C@@H](CS)C(=O)N[C@@H](Cc2ccccc2)C(=O)N1)C(=O)N[C@@H](CCCCN)C(=O)N[C@@H](CCCCN)C(=O)N[C@@H](CCCNC(=N)N)C(=O)O [S3, His-Leu-S5-Ala-Cys-Phe-S5-Cys-Ala-Lys-Lys-Leu-Lys-Lys-Arg] (H-HL[S5]ACF[S5]CAKKLKKR-OH; staple 3-7; N-terminus and C-terminus assumed) | 0.8287 | interrupted | 42.1 | significantly higher than that of polypeptide MR2 | – | –
CSCC[C@H](NC(=O)[C@H](CC(C)C)NC(=O)[C@@H](N)Cc1c[nH]cn1)C(=O)N[C@@]1(C)CCCC=CCCC[C@@](C)(C(=O)N[C@@H](C)C(=O)N[C@@H](CCCCN)C(=O)N[C@@H](CCCCN)C(=O)N[C@@H](CC(C)C)C(=O)N[C@@H](CCCCN)C(=O)N[C@@H](CCCCN)C(=O)N[C@@H](CCCNC(=N)N)C(=O)O)NC(=O)[C@H]([C@@H](C)O)NC(=O)[C@H](Cc2ccccc2)NC(=O)[C@H](CS)NC1=O [S4, His-Leu-Met-S5-Cys-Phe-Thr-S5-Ala-Lys-Lys-Leu-Lys-Lys-Arg] (H-HLM[S5]CFT[S5]AKKLKKR-OH; staple 4-8; N-terminus and C-terminus assumed) | 0.65 | interrupted | 33.6 | significantly higher than that of polypeptide MR2 | – | –
S19: chimeric polypeptide Pep2-MR2, amino acid sequence SEQ ID NO: 19 (HLYVSPWGGHLMACFTCAKKLKKR; chimeric polypeptide Pep2-MR2 S19) | – | – | – | – | 0.5637 | reduce hydroxyproline content
S20: chimeric polypeptide TAT-MR2, amino acid sequence SEQ ID NO: 20 (YGRKKRRQRRRGGHLMACFTCAKKLKKR; chimeric polypeptide TAT-MR2 S20) | – | – | – | – | 0.7443 | reduce hydroxyproline content
S21: chimeric polypeptide Antp-MR2, amino acid sequence SEQ ID NO: 21 (RQIKIWFQNRRMKWKKGGHLMACFTCAKKLKKR; chimeric polypeptide Antp-MR2 S21) | – | – | – | – | 0.7488 | reduce hydroxyproline content
